In patent US20250275959A1, “COMPOUNDS AND METHODS OF THEIR USE” (LEXICON PHARMACEUTICALS, INC., priority 2024, published 2025) one finds IC50 data, which are given here for 23 molecules.

The term IC50 denotes the concentration that inhibits the measured activity by half.

Assay [1] addresses T1, hACSL5 (Homo sapiens (Human), UniProt Q9ULC5). Briefly: Human ACSL5 coupled enzyme Amplex Red assay. In kind it is biochemical. As to conditions: read-out: hACSL5 IC50. As to the method: Human ACSL5 (33-683) was cloned with a C-terminal 6 His tag and expressed in insect cells (sf9) as per standard insect cell expression protocols. Human ACSL5 was enriched by affinity nickel affinity chromatography followed by Superdex S200 gel filtration column equilibrated in 20 mM HEPES pH 7.8, 500 mM NaCl, 1 mM TCEP, 5% glycerol, 0.1% Triton X^100.
Inhibition of ACSL5 enzyme activity was monitored with a coupled enzyme Amplex Red assay.
The assay is carried out in 384-well microtiterplates. In a total volume of […], compounds are preincubated with 20 nM ACSL5, in a buffer containing 150 mM MOPS-NaOH, 12 mM MgCl2, 0.03% (v/v) Triton X-100, 2.79 U mL-1 Peroxidase and 24 U mL-1 Acyl-CoA Oxidase (pH 7.6). The reaction is started by the addition of substrate and co factors (25 μM oleate, 30 μM CoA, 1 mM ATP and 50 μM Amplex Red) and the fluorescence detected after 10 minutes at 25° C. with a fluorescence reader (BMG-Fluostar; BMG-Technologies) using an excitation wavelength of 535 nm and an emission wavelength of 590 nm.
(§1) Concentration-response titration points for each compound tested were filled to the Hill equation yielding concentrations of half maximal inhibition […] and maximal inhibition values.
Target sequence in this assay (Q9ULC5 33-683): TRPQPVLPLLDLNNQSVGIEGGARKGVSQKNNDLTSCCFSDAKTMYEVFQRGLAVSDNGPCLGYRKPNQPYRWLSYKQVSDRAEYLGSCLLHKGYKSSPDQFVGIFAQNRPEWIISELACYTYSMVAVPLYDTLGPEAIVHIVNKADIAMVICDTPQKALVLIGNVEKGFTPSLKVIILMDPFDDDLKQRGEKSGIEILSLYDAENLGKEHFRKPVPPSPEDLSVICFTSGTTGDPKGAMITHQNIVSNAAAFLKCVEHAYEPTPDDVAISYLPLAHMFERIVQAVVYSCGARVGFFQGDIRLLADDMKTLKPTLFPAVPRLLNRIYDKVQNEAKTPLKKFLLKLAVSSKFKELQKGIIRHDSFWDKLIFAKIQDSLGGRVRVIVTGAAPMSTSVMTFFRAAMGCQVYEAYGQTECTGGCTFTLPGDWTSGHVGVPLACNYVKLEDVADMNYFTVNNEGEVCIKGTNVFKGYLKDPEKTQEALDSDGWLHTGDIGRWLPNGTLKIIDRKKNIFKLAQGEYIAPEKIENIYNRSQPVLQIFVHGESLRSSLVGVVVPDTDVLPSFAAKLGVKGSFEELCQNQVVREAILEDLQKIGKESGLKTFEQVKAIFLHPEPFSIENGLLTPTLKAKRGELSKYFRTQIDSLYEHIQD

Assay [2] concerns the target T1, hACSL5. As to the kind of experiment: Cell-based assay (CBA) with B12FA in hACSL5-transfected Expi293F / FlpIn TRex293 cells. As to conditions: hACSL5-expressing cells.
Description: To assess the cell penetration and cellular activity of the compounds, a cell-based assay (CBA) was used to detect compound potency in living cells. The assay utilized the fluorescent fatty acid analogue B12FA, a boron-dipyrromethene (BODIPY™) labelled C12 fatty acid that can be incorporated into glycerophosphocholine in the cytoplasmic oil droplets of live cells. A concentration-dependent, red-shifted fluorescence can be induced by the formation of BODIPY™ excimers in the oil droplets.
Expi293F cells transfected with full length hACSL5 plasmid were selected using 1 mg/mL G418 culture medium and clones were selected by in vitro whole cell lysate (WCL) assay. The cell passage number used in the Expi293 CBA assay could not be used beyond 10 passages due to a decrease in hACSL5 expression. Therefore, a CBA using FlpIn TRex293 cells for inducible expression of hACSL5 was also established.
FlpIn TRex293 cells transfected with hACSL5 plasmid were selected in culture medium containing 15 µg/ml Blasticidin and 150 µg/ml Hygromycin. For cell-based assays, stable transfected hACSL5 cells were seeded onto a 96-well plate at 30-50k/well and incubated overnight. For the inducible system, […] tetracycline (or doxycycline) was added to culture medium of FlpIn TRex293 hACSL5 cells on the day before the assay to induce expression of hACSL5. The next day, growth media was replaced with culture medium without FBS and glucose (DMEM glucose (-), ThermoFisher) and cells were incubated for an hour before treating cells with serial diluted compounds containing 20 µM B12FA (ThermoFisher) for another 3 hours in the above medium. Cells were then fixed in 4% formaldehyde for 10 minutes and washed twice with PBS. The plate was read using the Cytation 5 imaging system with an excitation wavelength of 485 nm and observed emissions at 630 nm and 520 nm. The percentage of inhibition was calculated as: […]
wherein A is the ratio of emission intensities at 630 nm/520 nm in the absence of inhibitor (maximum ratio); B is the ratio of the intensities at those wavelengths in the presence of […] of the test compound or non-induced cells (minimum ratio); and X is the ratio of the intensities at a given compound concentration.
as §1
Target sequence in this assay (Q9ULC5 whole entry): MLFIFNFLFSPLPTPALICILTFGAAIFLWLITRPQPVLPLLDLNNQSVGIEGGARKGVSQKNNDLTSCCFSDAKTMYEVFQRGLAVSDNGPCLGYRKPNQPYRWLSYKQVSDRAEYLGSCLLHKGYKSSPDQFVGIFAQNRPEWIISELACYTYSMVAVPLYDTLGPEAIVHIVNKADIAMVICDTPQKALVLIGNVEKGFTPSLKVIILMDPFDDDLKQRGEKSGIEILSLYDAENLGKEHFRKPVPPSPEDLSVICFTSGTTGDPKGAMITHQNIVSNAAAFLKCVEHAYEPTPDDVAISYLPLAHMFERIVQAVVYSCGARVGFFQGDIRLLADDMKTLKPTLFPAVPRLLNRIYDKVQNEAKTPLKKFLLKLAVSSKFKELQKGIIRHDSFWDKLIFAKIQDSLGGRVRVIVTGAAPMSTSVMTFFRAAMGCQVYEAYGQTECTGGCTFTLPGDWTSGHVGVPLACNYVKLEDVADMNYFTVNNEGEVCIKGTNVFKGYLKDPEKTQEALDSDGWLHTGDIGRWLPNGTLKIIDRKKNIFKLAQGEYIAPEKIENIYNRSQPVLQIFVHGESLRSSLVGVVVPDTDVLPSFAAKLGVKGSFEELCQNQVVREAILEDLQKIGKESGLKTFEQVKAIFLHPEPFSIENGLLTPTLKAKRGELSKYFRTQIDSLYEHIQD

Turning to `CC[C@@H](Oc1ccc(C(=O)NS(=O)(=O)N2CCC(OC3CCN(C)CC3)CC2)c(F)c1F)c1ccc(OC2CC(OC)C2)cn1` (stereo partly drawn) [2,3-difluoro-4-((R)-1-(5-((1R,3R)-3-methoxycyclobutoxy)pyridin-2-yl)propoxy)-N-((4-((1-methylpiperidin-4-yl)oxy)piperidin-1-yl)sulfonyl)benzamide], the results for the IC50 in assay [1] and in assay [2] were under 100 nM and 100 to 500 nM, respectively.
In the same order, the values of `CC[C@@H](Oc1ccc(C(=O)NS(=O)(=O)N2CCN(C)CC2)c(F)c1F)c1ccc(OC2CC(OC)C2)cn1` (stereo partly drawn) [2,3-difluoro-4-((R)-1-(5-((1R,3R)-3-methoxycyclobutoxy)pyridin-2-yl)propoxy)-N-((4-methylpiperazin-1-yl)sulfonyl)benzamide] are 100 to 500 nM and 100 to 500 nM.
For `CC[C@@H](Oc1ccc(C(=O)NS(=O)(=O)c2ccc(OC3CCCN(C)C3)cc2)c(F)c1F)c1ccc(Oc2ccccn2)cn1` (stereo partly drawn) [2,3-difluoro-N-((4-((1-methylpiperidin-3-yl)oxy)phenyl)sulfonyl)-4-((R)-1-(5-(pyridin-2-yloxy)pyridin-2-yl)propoxy)benzamide] the same measures were under 100 nM and under 100 nM.
In the same order, the values of `CC(Oc1ccc(C(=O)NS(=O)(=O)c2cnn(CCN(C)C)c2)c(F)c1F)c1cccc(OCC2CC2)c1` (stereo not drawn) [4-(1-(3-(cyclopropylmethoxy)phenyl)ethoxy)-N-((1-(2-(dimethylamino)ethyl)-1H-pyrazol-4-yl)sulfonyl)-2,3-difluorobenzamide] are 100 to 500 nM and over 500 nM.
On to `CC[C@@H](Oc1ccc(C(=O)NS(=O)(=O)N2CCN(C)CC2)c(F)c1F)c1ccc(OC2CC(OC(F)F)C2)cn1` (stereo partly drawn) [4-((R)-1-(5-((1R,3R)-3-(difluoromethoxy)cyclobutoxy)pyridin-2-yl)propoxy)-2,3-difluoro-N-((4-methylpiperazin-1-yl)sulfonyl)benzamide], for which the IC50 in assay [1] and in assay [2] was 100 to 500 nM in each case.
`CC[C@@H](Oc1ccc(C(=O)NS(=O)(=O)N2CCC(OC3CCN(C)CC3)CC2)cc1C(F)(F)F)c1ccc(OC2CC(OC)C2)cn1` (stereo partly drawn) [4-((R)-1-(5-((1R,3R)-3-methoxycyclobutoxy)pyridin-2-yl)propoxy)-N-((4-((1-methylpiperidin-4-yl)oxy)piperidin-1-yl)sulfonyl)-3-(trifluoromethyl)benzamide]: the IC50 in assay [1] is under 100 nM; in assay [2] it was 100 to 500 nM.
For `CC[C@@H](Oc1ccc(C(=O)NS(=O)(=O)N2CCN(C)CC2)cc1C(F)(F)F)c1ccc(OC2CC(OC)C2)cn1` (stereo partly drawn) [4-((R)-1-(5-((1R,3R)-3-methoxycyclobutoxy)pyridin-2-yl)propoxy)-N-((4-methylpiperazin-1-yl)sulfonyl)-3-(trifluoromethyl)benzamide] the same measures were 100 to 500 nM and 100 to 500 nM.
Regarding `NCc1ccc(S(=O)(=O)NC(=O)c2ccc(OCc3ccc(Oc4ccccc4)cc3)c(F)c2F)cc1` [N-((4-(aminomethyl)phenyl)sulfonyl)-2,3-difluoro-4-((4-phenoxybenzyl)oxy)benzamide], the IC50 in assay [1] is over 500 nM.
The same measure, in the same setting: the value for `CC(Oc1ccc(C(=O)NS(=O)(=O)c2ccc(CN)cc2)cc1C(F)(F)F)c1cccc(Oc2cnn(C)c2)c1` (stereo not drawn) [N-((4-(aminomethyl)phenyl)sulfonyl)-4-(1-(3-((1-methyl-1H-pyrazol-4-yl)oxy)phenyl)ethoxy)-3-(trifluoromethyl)benzamide] was over 500 nM.
Still for that read-out and setting: the value for `CCCC(C)COc1cccc(C(C)Oc2ccc(C(=O)NS(=O)(=O)c3ccc(CN)cc3)cc2C(F)(F)F)c1` (stereo not drawn) [N-((4-(aminomethyl)phenyl)sulfonyl)-4-(1-(3-((2-methylpentyl)oxy)phenyl)ethoxy)-3-(trifluoromethyl)benzamide] was over 500 nM; that for `CC(Oc1ccc(C(=O)NS(=O)(=O)c2ccc(CN)cc2)cc1C(F)(F)F)c1cccc(OCC2CCCC2)c1` (stereo not drawn) [N-((4-(aminomethyl)phenyl)sulfonyl)-4-(1-(3-(cyclopentylmethoxy)phenyl)ethoxy)-3-(trifluoromethyl)benzamide] was over 500 nM; that for `CC(Oc1ccc(C(=O)NS(=O)(=O)c2ccc(CN)cc2)c(F)c1F)c1cccc(OC2CCCC2)c1` (stereo not drawn) [N-((4-(aminomethyl)phenyl)sulfonyl)-4-(1-(3-(cyclopentyloxy)phenyl)ethoxy)-2,3-difluorobenzamide] was 100 to 500 nM.
On the same count and under the same terms, the value for `CC(Oc1ccc(C(=O)NS(=O)(=O)c2ccc(CN)cc2)cc1C(F)(F)F)c1cccc(OC2CCCC2)c1` (stereo not drawn) [N-((4-(aminomethyl)phenyl)sulfonyl)-4-(1-(3-(cyclopentyloxy)phenyl)ethoxy)-3-(trifluoromethyl)benzamide] was over 500 nM; that for `CCCCCOc1cccc(C(C)Oc2ccc(C(=O)NS(=O)(=O)c3ccc(CN)cc3)cc2C(F)(F)F)c1` (stereo not drawn) [N-((4-(aminomethyl)phenyl)sulfonyl)-4-(1-(3-(pentyloxy)phenyl)ethoxy)-3-(trifluoromethyl)benzamide] was 100 to 500 nM.
For `CC(Oc1ccc(C(=O)NS(=O)(=O)c2ccc(CN)cc2)cc1C(F)(F)F)c1cccc(Oc2cnccn2)c1` (stereo not drawn) [N-((4-(aminomethyl)phenyl)sulfonyl)-4-(1-(3-(pyrazin-2-yloxy)phenyl)ethoxy)-3-(trifluoromethyl)benzamide], the IC50 in assay [1] is under 100 nM.
Still for that read-out and setting: the value for `CC(Oc1ccc(C(=O)NS(=O)(=O)c2ccc(CN)cc2)cc1C(F)(F)F)c1cccc(Oc2ccccn2)c1` (stereo not drawn) [N-((4-(aminomethyl)phenyl)sulfonyl)-4-(1-(3-(pyridin-2-yloxy)phenyl)ethoxy)-3-(trifluoromethyl)benzamide] was under 100 nM; that for `CC(Oc1ccc(C(=O)NS(=O)(=O)c2ccc(CN)cc2)cc1C(F)(F)F)c1cccc(Oc2cccnc2)c1` (stereo not drawn) [N-((4-(aminomethyl)phenyl)sulfonyl)-4-(1-(3-(pyridin-3-yloxy)phenyl)ethoxy)-3-(trifluoromethyl)benzamide] was under 100 nM.
The same measure, in the same setting: with `CC(Oc1ccc(C(=O)NS(=O)(=O)c2ccc(CN)cc2)cc1C(F)(F)F)c1cccc(Oc2cncnc2)c1` (stereo not drawn) [N-((4-(aminomethyl)phenyl)sulfonyl)-4-(1-(3-(pyrimidin-5-yloxy)phenyl)ethoxy)-3-(trifluoromethyl)benzamide] the figure was 100 to 500 nM; with `CC(Oc1ccc(C(=O)NS(=O)(=O)c2ccc(CN)cc2)cc1C(F)(F)F)c1cccc(Oc2ccsc2)c1` (stereo not drawn) [N-((4-(aminomethyl)phenyl)sulfonyl)-4-(1-(3-(thiophen-3-yloxy)phenyl)ethoxy)-3-(trifluoromethyl)benzamide], under 100 nM; with `CC(COc1ccc(C(=O)NS(=O)(=O)c2ccc(CN)cc2)cc1C(F)(F)F)c1cccc(Oc2ccccc2)c1` (stereo not drawn) [N-((4-(aminomethyl)phenyl)sulfonyl)-4-(2-(3-phenoxyphenyl)propoxy)-3-(trifluoromethyl)benzamide], 100 to 500 nM.
`NCc1ccc(S(=O)(=O)NC(=O)c2ccc(OCC3CCCC3)c(C(F)(F)F)c2)cc1` [N-((4-(aminomethyl)phenyl)sulfonyl)-4-(cyclopentylmethoxy)-3-(trifluoromethyl)benzamide]: the IC50 in assay [1] was over 500 nM.
Still for that read-out and setting: the value for `CC[C@@H](Oc1ccc(C(=O)NS(=O)(=O)N2CCN(CC)CC2)c(F)c1F)c1ccc(OC2CC(OC)C2)cn1` (stereo partly drawn) [N-((4-ethylpiperazin-1-yl)sulfonyl)-2,3-difluoro-4-((R)-1-(5-((1R,3R)-3-methoxycyclobutoxy)pyridin-2-yl)propoxy)benzamide] was 100 to 500 nM.
On the same count and under the same terms, with `CC[C@@H](Oc1ccc(C(=O)NS(=O)(=O)N2CCN(CC)CC2)cc1C(F)(F)F)c1ccc(OC2CC(OC)C2)cn1` (stereo partly drawn) [N-((4-ethylpiperazin-1-yl)sulfonyl)-4-((R)-1-(5-((1R,3R)-3-methoxycyclobutoxy)pyridin-2-yl)propoxy)-3-(trifluoromethyl)benzamide] the figure was 100 to 500 nM.
